According to patent US20130225611A1, “Compositions and Methods for Reducing Cancer Cell Proliferation and Modulating Importin-Beta Function” (THE REGENTS OF THE UNIVERSITY OF CALIFORNIA, priority 2011, published 2013):
≈ marks a conversion by molar mass, not a printed value.

Assays:
solubility in water = assay type: physicochemical
importin-β = target: T1, importin-β (Homo sapiens, UniProt Q14974); assay: fluorescent thermal shift assay (Sypro Orange), importin-β; assay type: binding; conditions: 2 μM importin-β, 50 μM compound
T1 construct: made in house; host or cells: BL21 cells (E. coli)
T1 sequence (Q14974 whole entry): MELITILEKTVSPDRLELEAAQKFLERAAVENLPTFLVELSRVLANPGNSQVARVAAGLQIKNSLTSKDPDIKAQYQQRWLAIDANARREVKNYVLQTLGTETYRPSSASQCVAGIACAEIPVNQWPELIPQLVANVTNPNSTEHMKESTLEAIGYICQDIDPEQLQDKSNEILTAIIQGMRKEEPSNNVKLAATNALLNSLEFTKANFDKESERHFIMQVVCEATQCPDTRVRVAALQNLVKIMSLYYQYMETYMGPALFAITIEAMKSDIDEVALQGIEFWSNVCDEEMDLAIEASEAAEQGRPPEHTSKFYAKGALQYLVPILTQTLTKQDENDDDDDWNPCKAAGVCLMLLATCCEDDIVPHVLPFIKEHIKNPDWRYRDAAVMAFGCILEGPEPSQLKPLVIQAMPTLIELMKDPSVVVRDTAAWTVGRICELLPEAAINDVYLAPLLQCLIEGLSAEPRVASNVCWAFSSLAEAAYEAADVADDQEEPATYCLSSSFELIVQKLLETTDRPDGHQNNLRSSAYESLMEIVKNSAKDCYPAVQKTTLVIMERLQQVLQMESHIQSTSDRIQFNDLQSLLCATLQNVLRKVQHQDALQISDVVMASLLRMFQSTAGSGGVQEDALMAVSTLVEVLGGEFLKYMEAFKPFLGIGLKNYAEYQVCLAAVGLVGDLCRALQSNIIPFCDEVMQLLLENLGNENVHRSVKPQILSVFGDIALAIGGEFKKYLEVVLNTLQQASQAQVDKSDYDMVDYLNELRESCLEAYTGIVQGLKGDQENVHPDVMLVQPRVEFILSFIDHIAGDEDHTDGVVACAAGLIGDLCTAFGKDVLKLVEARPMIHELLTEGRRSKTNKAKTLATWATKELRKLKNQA
Procedure: Experiments were performed using Applied Biosystems StepOnePlus™ Real-Time polymerase chain reaction (RT-PCR) System. Protein stocks were diluted in PBS and added 70% v/v to a Microamp® Fast 96-well Reaction Plate and maintained on ice. Compounds (importazole and control compound 3016) were then added at 30% v/v in 3% DMSO. Freshly prepared 100× water based-dilution of Sypro® Orange Protein Gel Stain was then added at 1% v/v to reach a final reaction volume of 20 μl. Samples were mixed by gentle pipetting. After sealing the plates with Microamp™ Optical Adhesive Film, the plate was subjected to a heating cycle composed of a 10 sec prewarming step at 25° C. and a gradient between 25° C. and 95° C. with a 0.3° C. ramp. Data was analyzed using the StepOnePlus™ Software v2.1.

[1] = system: importin-β-mediated nuclear import; assay: ionomycin-induced NFAT-GFP nuclear import in HEK 293 cells; assay type: cell-based, human
From the text: To investigate whether importazole is cell permeable and active in living human cells, a cell line was generated that stably expresses a GFP-tagged version of the transcription factor NFAT (nuclear factor of activated T cells), which shuttles between the nucleus and the cytoplasm in a calcium-regulated manner and is imported by importin-α/β and exported by CRM1. At steady state NFAT is predominantly cytoplasmic. An increase in cytoplasmic calcium induced by the ionophore ionomycin leads to the accumulation of NFAT in the nucleus (FIG. 4A). NFAT import can be reverted upon ionophore withdrawal, (FIG. 5A) providing an inducible system ideal for testing the effects of importazole on importin-β-mediated nuclear import and CRM1-mediated nuclear export, both of which are dependent upon RanGTP.
Cells were pretreated with 40 μM importazole for 1 hour followed by 30 minutes of ionomycin treatment in the continued presence of importazole. […] Thus, it is possible to use importazole in drug-washout experiments to study the Ran/importin-β pathway in cells.
A GFP-NFAT expression plasmid (pKW520) was generated by inserting a BamH I/Hind III-cleaved NFATC1 cDNA fragment into pEGFP-C1 (Clontech) digested with Bgl II and Hind III. The construct was stably transfected into HEK 293 cells and a single clone expressing moderate levels of NFAT-GFP was selected and maintained in Opti-mem media (Gibco) plus 4% fetal bovine serum, 1% penicillin/streptomycin, and 200 μg/ml G418. HeLa cells were grown and maintained according to standard protocols.
For all import and export experiments, HEK 293 cells stably expressing NFAT-GFP were grown on glass coverslips to approximately 50% confluency prior to drug treatment. In all cases, importazole was used at 40 μM and leptomycin B was used at 10 ng/ml. For controls, DMSO was used at a concentration of 0.4%. Ionomycin was added at 1.25 μM. Importazole and leptomycin B treatments were all for 1 hour. In all experiments cells were fixed with 4% formaldehyde prior to fluorescence microscopy. DNA was visualized with 1 μg/ml Hoechst dye.

[2] = system: CRM1-mediated export of NFAT-GFP; assay: NFAT-GFP nuclear export after ionomycin washout in HEK 293 cells; assay type: cell-based, human; conditions: HEK 293, importazole 40 μM, leptomycin B 10 ng/ml, 1 hour after ionomycin washout
[3] = system: spindle assembly around sperm chromosomes; assay: spindle assembly in metaphase-arrested Xenopus egg extracts; parameters: species or system Xenopus laevis; conditions: 100 μM importazole
From the text: In order to determine whether importazole also disrupts mitosis, importazole was first tested in metaphase-arrested Xenopus egg extracts, which rely heavily on a RanGTP gradient for spindle assembly around sperm chromosomes. […] The effect was similar to that of adding a truncated importin-β (amino acids 71-876), a version that no longer binds to RanGTP and therefore sequesters its cargoes. […] Thus, importazole caused dramatic effects on spindle assembly consistent with the known role of the importin-β/RanGTP pathway in the Xenopus egg extract system, and is not a general microtubule inhibitor.
Xenopus laevis egg extracts were prepared as described by Hannak et al. (2006) Nat. Protoc. 1:2305-2314. For in vitro spindle assembly, Xenopus laevis sperm DNA was added to egg extracts supplemented with rhodamine-labeled tubulin. Asters were formed by addition of 5% DMSO. DNA was stained with Hoechst dye. The formation of microtubule-based structures was assessed using epifluorescence microscopy after a 30-minute room temperature incubation. In vitro microtubule polymerization and pelleting assays were performed by incubating 25 μM bovine tubulin, 1 mM GTP, and 5% DMSO in BRB80 buffer (80 mM PIPES, 1 mM MgCl2, 1 mM EGTA, pH 6.8) at 37° C. for 30 minutes. Polymerized microtubules were pelleted through a sucrose cushion, resuspended, and analyzed by SDS PAGE.

HeLa cells = assay: mitotic spindle defects in HeLa cells (tubulin and DNA staining); assay type: cell-based, human; conditions: HeLa cells treated for one hour
Procedure: To examine the consequences of importazole on mitosis, HeLa cells treated for one hour were fixed and stained for tubulin and chromosomes. […] Spindle positioning was not previously attributed to the Ran pathway and this phenotype may be a consequence of astral microtubule disruption by importazole.
Cells were fixed in 4% formaldehyde and 0.1% glutaraldehyde in PHEM (60 mM PIPES, 25 mM HEPES, 10 mM EGTA, 2 mM MgSO4) at 37° C. for 15 minutes followed by permeabilization with 0.1% triton X-100 for 2 minutes at room temperature. Cells were then washed and blocked (PHEM+5% FBS+0.2% saponin) and stained by standard techniques using the E7-A anti β tubulin antibody (Developmental Studies Hybridoma Bank) diluted 1:1000 and Hoechst dye.

CC(Nc1nc(N2CCCC2)nc2ccccc12)c1ccccc1 (stereo not drawn) [importazole, (1-phenyl-ethyl)-(2-pyrrolidin-1-yl-quinazolin-4-yl)-amine]
solubility (solubility in water): ~100 µM (≈ 31.8 µg/mL)
reduction of melting temperature of importin-β (importin-β): 1.72+/−0.27 °C
nuclear accumulation of NFAT-GFP after ionomycin addition ([1]; HEK 293, 40 μM, 1 hour pretreatment then 30 minutes ionomycin): virtually no import of NFAT-GFP
IC50 ([1]; Homo sapiens, HEK293, HEK 293 cells stably expressing NFAT-GFP, read-out: IC50 for inhibition of NFAT-GFP import): ~15 µM
reversibility of NFAT-GFP import inhibition ([1]; washout, 1 hour recovery before ionomycin): reversible upon importazole washout
CRM1-mediated export of NFAT-GFP [2]: occurred efficiently
sperm nuclei at which normal bipolar microtubule structures were prevented from forming [3]: 80%
cells displaying off-center spindles (HeLa cells): more than 40%
defects in spindle assembly, chromosome alignment and spindle size (HeLa cells; 0 to 40 μM): dose-dependent defects
